Key:
[1] = system: healthy male subjects; assay: Safety: treatment-emergent adverse events, SAD study; format: in vivo, human
Procedure: Safety was assessed by monitoring adverse events (AEs) throughout the studies that were coded using the standard Medical Dictionary for Regulatory Activities (MedDRA) dictionary (versions 19.0 [SAD part 1], 20.0 [SAD part 2] and 21.1 [MAD]). Other safety monitoring included 12‐lead electrocardiography recordings, measurement of vital signs (systolic and diastolic blood pressure and heart rate), physical and neurological (Hamilton depression rating scale[17] and Beck depression inventory‐II fastscreen[18] [SAD only], mental status examination, cranial nerves assessment and motor system examination, sensation to light touch, coordination/cerebellar function assessment, Romberg's test, gait test, daytime sleepiness assessment [SAD and MAD studies]) examinations, haematology, biochemistry and urinalysis. To minimise risks in the SAD and MAD studies, subjects were dosed sequentially using sentinels in each cohort (1 IP, 1 placebo) as per European Medicines Agency guidelines.[19] If the previous dose was well tolerated, with no safety concerns, dose escalation was decided by the Safety Review Group after reviewing safety and PK data from all available cohorts. Moreover, treatment with the highest dose in the SAD study was repeated (cohort 10) for regular ophthalmological evaluations (assessments available as supplementary information) to better characterise visual AEs observed in the SAD study. Regular ophthalmological assessments were also performed in the MAD study.

[2] = rat, in vivo; cited from earlier work
From the text: This is in line with nonclinical PK studies in rats and dogs, in which emodepside volume ...

[3] = SAD Part 2, 10 mg LSF (fed) n = 6
[4] = SAD Part 2, 40 mg LSF (fasting) n = 6

## CC(C)C[C@H]1C(=O)O[C@H](Cc2ccc(N3CCOCC3)cc2)C(=O)N(C)[C@@H](CC(C)C)C(=O)O[C@H](C)C(=O)N(C)[C@@H](CC(C)C)C(=O)O[C@H](Cc2ccc(N3CCOCC3)cc2)C(=O)N(C)[C@@H](CC(C)C)C(=O)O[C@H](C)C(=O)N1C [emodepside]
[1]; SAD Part 1, 10 mg LSF n = 6
  TEAE: Psychiatric disorders: 0 n (%)
  TEAE: Respiratory, thoracic and mediastinal disorders: 1 (16.7) n (%)
[1]; SAD Part 1, 20 mg IRT n = 6
  Any TEAE: 2 (33.3) n (%)
  TEAE: Eye disorders: 0 n (%)
  TEAE: Gastrointestinal disorders: 1 (16.7) n (%)
  TEAE: General disorders and administration site disorders: 0 n (%)
  TEAE: Infections and infestations: 0 n (%)
  TEAE: Injury, poisoning and procedural complications: 0 n (%)
  TEAE: Musculoskeletal and connective tissue disorders: 1 (16.7) n (%)
  TEAE: Nervous system disorders: 1 (16.7) n (%)
  TEAE: Psychiatric disorders: 0 n (%)
  TEAE: Respiratory, thoracic and mediastinal disorders: 1 (16.7) n (%)
[1]; SAD Part 1, 20 mg LSF n = 6
  Any TEAE: 3 (50.0) n (%)
  TEAE: Eye disorders: 1 (16.7) n (%)
  TEAE: Gastrointestinal disorders: 0 n (%)
  TEAE: General disorders and administration site disorders: 0 n (%)
  TEAE: Infections and infestations: 1 (16.7) n (%)
  TEAE: Injury, poisoning and procedural complications: 1 (16.7) n (%)
  TEAE: Musculoskeletal and connective tissue disorders: 0 n (%)
  TEAE: Nervous system disorders: 1 (16.7) n (%)
  TEAE: Psychiatric disorders: 0 n (%)
  TEAE: Respiratory, thoracic and mediastinal disorders: 1 (16.7) n (%)
[1]; SAD Part 1, 40 mg LSF n = 6
  Any TEAE: 5 (83.3) n (%)
  TEAE: Eye disorders: 5 (83.3) n (%)
  TEAE: Gastrointestinal disorders: 0 n (%)
  TEAE: General disorders and administration site disorders: 0 n (%)
  TEAE: Infections and infestations: 1 (16.7) n (%)
  TEAE: Injury, poisoning and procedural complications: 0 n (%)
  TEAE: Musculoskeletal and connective tissue disorders: 1 (16.7) n (%)
  TEAE: Nervous system disorders: 3 (50.0) n (%)
  TEAE: Psychiatric disorders: 0 n (%)
  TEAE: Respiratory, thoracic and mediastinal disorders: 0 n (%)
[1]; [3]
  Any TEAE: 3 (50.0) n (%)
  TEAE: Eye disorders: 0 n (%)
  TEAE: Gastrointestinal disorders: 0 n (%)
  TEAE: General disorders and administration site disorders: 0 n (%)
  TEAE: Infections and infestations: 0 n (%)
  TEAE: Injury, poisoning and procedural complications: 0 n (%)
  TEAE: Musculoskeletal and connective tissue disorders: 0 n (%)
  TEAE: Nervous system disorders: 2 (33.3) n (%)
  TEAE: Psychiatric disorders: 0 n (%)
  TEAE: Respiratory, thoracic and mediastinal disorders: 1 (16.7) n (%)
[1]; [4]
  Any TEAE: 5 (83.3) n (%)
  TEAE: Eye disorders: 5 (83.3) n (%)
  TEAE: Gastrointestinal disorders: 3 (50.0) n (%)
  TEAE: General disorders and administration site disorders: 3 (50.0) n (%)
  TEAE: Infections and infestations: 0 n (%)
  TEAE: Injury, poisoning and procedural complications: 0 n (%)
  TEAE: Musculoskeletal and connective tissue disorders: 1 (16.7) n (%)
  TEAE: Nervous system disorders: 4 (66.7) n (%)
  TEAE: Psychiatric disorders: 1 (16.7) n (%)
  TEAE: Respiratory, thoracic and mediastinal disorders: 1 (16.7) n (%)
[1]; SAD, 10 mg LSF in the fasting state
  Drug-related visual disorder TEAEs: 2 subjects
[1]; SAD, 40 mg LSF in the fasting state
  Drug-related visual disorder TEAEs: 5 subjects
[1]; SAD, all mild
  Time to spontaneous resolution of drug-related visual disorder TEAEs: ≤ 24 h
[1]; in vivo
  Onset of drug-related visual disorder TEAEs post-dose: 20 to 240 min
  Onset of drug-related visual disorder TEAEs, most often: 1 to 2.5 h
[2]
  Radioactivity levels in tissues vs blood, radio-labelled emodepside: higher in most tissues than in the blood
